Results on one compound are retold here after patent EP0462071B1, “Pharmaceutical resorption-improved somatostatin compositions, their preparation and use” (SANDOZ LTD., priority 1990, dated 1991).

SMILES strings stand for the structures. Where two headings read alike, the source gives them in different places.

The Cmax is the peak of the concentration-time curve.

The nature of this data set: Resorption of octreotide after injection of a solution into the jejunum of anaesthetised rats; plasma concentration by radio-immunoassay. It is filed as in vivo, Wistar rats. The settings on record: for AUC(0-t): area under the curve over 2 hours. The protocol:
Wistar rats (about 300 g body weight) were fasted for 12 hours and anaesthetised with urethane (2 doses of […] i.p.). The abdomen was opened to gain access to the gastrointestinal tract in particular the jejunum. A solution of the pharmaceutical composition according to the invention or of the somatostatin as a control or of a somatostatin in combination with sodium taurocholate, a resorption enhancer, known to be used in combination with e.g. salmon calcitonin or insulin for an improved resorption through the mucous membrane of the gastrointestinal tract, was injected into the gastrointestinal tract, e.g. the jejunum. Blood samples (e.g. 1 ml) are obtained 20 minutes, and 1 and 2 hours after administration from the vena cava. The blood is centrifuged and the somatostatin concentration in the plasma determined in conventional manner using a radio-immunoassay method.
The relative bioavailability (AUCo² = Area under the curve over 2 hours) is determined and expressed in the following table, in which the AUC is expressed as ng/ml.hour and Cmax as ng/ml: TABLE A

For the compound `C[C@@H](O)[C@@H]1NC(=O)[C@H](CCCCN)NC(=O)[C@@H](Cc2c[nH]c3ccccc23)NC(=O)[C@H](Cc2ccccc2)NC(=O)[C@@H](NC(=O)[C@H](N)Cc2ccccc2)CSSC[C@@H](C(=O)N[C@H](CO)[C@@H](C)O)NC1=O` [100 microg. of octreotide (reference), Octreotide], the Cmax (Wistar, rat, 100 microg., octreotide in plasma, 0.5 ml of NaCl (0.9 % W/V) solution injected into the jejunum, sem in the next column) is 2.23 ng/mL. For the same compound, the AUC(0-t) reads like this: (Wistar, rat, 100 microg., octreotide in plasma, 0.5 ml of NaCl (0.9 % W/V) solution injected into the jejunum, blood samples at 20 minutes, 1 and 2 hours, read-out: AUCo² median) 2.06 ng·h/mL; (Wistar, rat, plasma, 100 microg., octreotide in plasma, 0.5 ml of NaCl (0.9 % W/V) solution injected into the jejunum, sem in the next column, read-out: AUCo² mean) 2.26 ng·h/mL. Also, the Bioavail. rel. % (relative to 100 microg. of octreotide alone (reference = 100 %), values correspond to the ratio of the median AUCo²) was 100%.
